Source: patent US20110171321A1, “ELASTOMERIC ARTICLE HAVING A BROAD SPECTRUM ANTIMICROBIAL AGENT AND METHOD OF MAKING” (priority 2008, published 2011)

Test system: E. coli, E. faecalis, K. pneumoniae, P. aeruginosa, C. albicans, S. aureus, and S. epidermidis
Assay: zone of inhibition (ZOI), control articles in each plate
Assay type: cell-based
Details: 10 μg disk, values not shown
Description: Samples were submitted in duplicate for each sterilization process. […] The diameter of each zone is reported in millimeters. […] The control results are not shown.

gentamicin
inhibition by positive control: expected inhibition
